Key:
[1] = target: FK506 Binding Protein (FKBP) (Homo sapiens, UniProt P62942); conditions: ligand independently; cited from earlier work
[2] = target: mutated FKBP (Homo sapiens, UniProt P62942, F37V); conditions: cited from earlier work
[3] = test system: COS cells; experiment: peroxisome translocation assay (PEX-RFP-FKBP / DHFR-Kif 1a motor domain); assay type: cell-based
Procedure: Preliminary tests of Zapalog efficacy in COS cells were also carried out, using a peroxisome translocation assay adapted from Kapitein et al., 2010 (13) and illustrated in FIG. 4. The FKBP domain is coupled to RFP and a peroxisome-binding domain (PEX). The DHFR domain is fused to the motor domain of the kinesin Kif 1a. In the absence of a CID to couple these two proteins, the peroxisomes are stationary and located near the nucleus while the motor (visualized by immunocytochemistry) is diffuse in the cytosol (FIG. 4 DMSO). […] In a live-imaging experiment (FIG. 5), the addition of Zapalog initiated clear movement of the peroxisomes in less than 2 minutes. The dispersal of peroxisomes was reversed by exposure to a 405 nm laser. […] 5) the affinity of Zapalog in vivo is high enough to permit the transport of an organelle by a tethered motor. 6) Zapalog is photo-cleavable in vivo by 405 nm light. […] The experiments described herein seek to characterize Zapalog in sufficient detail to enable its use as a photo-cleavable CID. In particular, experiments were designed to determine the kinetics of Zapalog-induced dimerization and cleavage and whether it could be used to recreate a fully functional split kinesin for studies of motor interactions.

[4] = HPLC analysis of Zapalog before and after exposure to 405 nm light; assay type: physicochemical; conditions: after exposure to 405 nm light
Procedure: Zapalog was synthesized and 10 mg of TLC purified material was determined to be >98% pure by LCMS/HPLC and containing less than 0.1% of the monomeric ligands TMP and SLF.

[5] = test system: COST cells; experiment: YFP reporter relocalization to outer mitochondrial membrane (YFP-DHFR / Tom20-mCherry-FKBP); assay type: cell-based
Excerpt: In one set of experiments, Zapalog's efficacy as a dimerizing agent and the efficacy of light-induced cleavage was examined in simple assays of subcellular localization of a YFP reporter adapted from Komatsu et al., (Komatsu et al. Nature Methods 7: 206-8) and illustrated in FIG. 7 (optionally, a GFP or other reporter could have been used). An assay of Zapalog function was developed based on tethering a YFP reporter to the outer mitochondrial membrane of COST cells. In this assay, the YFP reporter was fused to the DHFR domain and, by default, was cytosolic. The FKBP domain was bound to the outer membrane of mitochondria with the N-terminus sequence of Tom20. The FKBP construct was tagged with mCherry. […] Subsequent 405 nm illumination caused immediate (<5 sec) release of YFP back to the cytosol. This redistribution was followed in video microscopy and quantified as a ratio of membrane bound to cytoplasmic fluorescence intensity

Sequence of mutated FKBP (P62942 2-108 F37V limits assumed): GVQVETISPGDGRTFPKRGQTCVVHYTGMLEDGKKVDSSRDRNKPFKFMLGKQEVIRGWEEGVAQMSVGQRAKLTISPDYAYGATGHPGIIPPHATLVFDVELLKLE
Sequence of FK506 Binding Protein (FKBP) (P62942 whole entry): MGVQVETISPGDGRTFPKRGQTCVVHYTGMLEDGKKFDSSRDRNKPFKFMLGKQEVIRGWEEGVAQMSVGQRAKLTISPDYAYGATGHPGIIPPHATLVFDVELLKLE

Which affinity [1] does the source give for `CCC(C)(C)C(=O)C(=O)N1CCCCC1C(=O)OC(CCc1ccc(OC)c(OC)c1)c1cccc(N)c1` (stereo not drawn) [SLF] here?
Its affinity is ~1 nM.

For `CCC(C(=O)N1CCCCC1C(=O)O[C@H](CCc1ccc(OC)c(OC)c1)c1cccc(OCC(=O)O)c1)c1cc(OC)c(OC)c(OC)c1` (stereo partly drawn) [SLF′], which Kd [2] is on record?
Its Kd is 0.094 nM.

Which results are given for `CCC(C)(C)C(=O)C(=O)N1CCCC[C@H]1C(=O)O[C@H](CCc1ccc(OC)c(OC)c1)c1cccc(NC(=O)CCCOc2cc([N+](=O)[O-])c(C(C)OCCOc3c(OC)cc(Cc4cnc(N)nc4N)cc3OC)cc2OC)c1` (stereo partly drawn) [Zapalog]?
binding to DHFR and FKBP domains in vivo [3]: can bind to the DHFR and FKBP domains in vivo; heterodimerization [3]: can cause heterodimerization; toxicity to cells [3]: not toxic to cells; translocation of motor domain to peroxisomes and redistribution of peroxisomes ([3]; 1 uM, in the dark, COS cells): caused the translocation of the motor domain to the peroxisomes and the redistribution of the peroxisomes to the periphery of the cell; effect of exposure of treated cells to light ([3]; COS cells, light after CID addition): caused the motor to detach from peroxisomes and resume its diffuse distribution; time to clear movement of peroxisomes after addition ([3]; live imaging): less than 2 minutes; dispersal of peroxisomes after 405 nm laser ([3]; live imaging, 405 nm laser): reversed; photolytic cleavage by HPLC [4]: complete photolytic cleavage; time to relocalization of YFP to the mitochondrial surface ([5]; 1 μM in the dark): 4 to 5 min; time to release of YFP back to the cytosol ([5]; subsequent 405 nm illumination): < 5 s

Source: US10053445B2, “Photocleavable chemical inducers of dimerization (CID) and methods of use” (Children's Medical Center Corporation, priority 2013, dated 2018)
